Experimental data published in patent US20130281405A1, “USE OF PC-NSAIDS TO TREAT AND/OR PREVENT PULMONARY INFLAMMATION” (priority 2012, published 2013).

Tests used:
[1] = test system: O3-induced pulmonary inflammation; assay: O3-induced lung injury/pulmonary inflammation model, endotracheal administration, BALF analysis; format: in vivo, mice
Method: Because of the clinical relevance of environmental ozone exposure, and the experience of our team, with the murine model of O3-induced LI, pulmonary inflammation, and/or AHR, we have evaluated the anti-inflammatory efficacy of our PC-NSAID formulations using this robust model system. In these studies, all mice were pre-dosed (via endotracheal administration) with vehicle, indomethacin (at a dose range from 2 mg/kg), ibuprofen (5 mg/kg) or the equivalent (NSAID) doses of the PC-NSAID compositions, 1 h before and 1.5 hours after being exposed to either filtered room air or O3 (2 ppm) for 3 h and then 6 h or 24 h following the cessation of exposure airway pulmonary injury and inflammation were assessed by euthanizing the animals and collecting bronchoalveolar lavage fluid (BALF) using standard techniques. The O3 exposure protocol were chosen to allow for comparison with data of other investigators studying acute O3-induced pulmonary inflammation/AHR in mice.
In these studies, all mice were pre-dosed with vehicle (PBS), NSAID (indomethacin or ibuprofen) (at a dose of 2 mg NSAID/kg), or the equivalent (NSAID) dose of the corresponding PC-NSAID composition using an endo-tracheal delivery method refined that we refined (25 μL/rat) 1 h before and 90 minutes after being exposed to either filtered room air or O3 (2 ppm) for 3 h. The PC-Indomethacin composition was prepared dissolving indomethacin and purified PC (Phospholipon 90G from Lipoid) in a polar solvent (such as acetone), followed by vacuum removal of the solvent to form a purified PC-NSAID oil composition. This purified PC-NSAID oil composition is then added to an amount of phosphate buffered saline (PBS) followed by 30 minutes of sonication to provide a uniform composition at the appropriate dose for intra-tracheal administration. In some experiments, we prepared the PC-Indomethacin composition using Lipoid S-100 (a highly purified >98% soy PC product, as recommended by the manufacturer) instead of Phospholipon 90G, as well as comparing the effects of the purified soy PC products (S-100 and 90G) alone. […] Twenty-four hours (24 h) following the cessation of O3 exposure, pulmonary injury and inflammation were assessed by euthanizing the animals and collecting bronchoalveolar lavage (BALE) fluid using standard techniques. The collected BALF samples were centrifuged (with the cell pellet analyzed for white cells) and the supernatant analyzed for protein and prostaglandin E2, all markers of pulmonary inflammation.
The concentration of total BALF protein has been determined spectrophotometrically according to the Bradford protein assay procedure (Bio-Rad Laboratories, Inc.; Hercules, Calif.) while the levels of IL-6, MIP-2, PGE2 in the BALF are determined using a commercially available ELISA kit (Immunology Consultants Laboratories, Inc., Newberg, Oreg.), and MPO activity (by enzymatic kit provided CytoStore) in accordance to the manufacturer's instructions. Pulmonary inflammation has been determined by assessing the BALF cell differentials on Cytospin cytocentrifuge preparations. Hemoglobin has been measured by the benzidine assay.
We used a modification the protocol employed in pilot studies. In these earlier experiments, mice were pre-dosed with phosphate buffered saline (PBS) vehicle, the test NSAID (indomethacin or ibuprofen) (at a dose of 2 mg or 5 mg NSAID/kg), PC (4 mg/k or 10 mg/kg), respectively, or the equivalent (NSAID) dose of the PC-NSAID complex using an endotracheal delivery method refined in our lab (25 μL/rat) 1 h before and 90 minutes after being exposed to either filtered room air or O3 (2 ppm) for 3 h.

[2] = test system: O3-induced pulmonary inflammation; assay: O3-induced pulmonary inflammation model, parenteral administration, BALF analysis; format: in vivo, mice; settings: 10 mg/kg, BALF 24 h post exposure, FIG. 2, pilot study
Method: Using the O3-induced pulmonary inflammation model, we have evaluated and compared the anti-inflammatory efficacy of PC-Indomethacin vs indomethacin administered parenterally at a dose of 10 mg/kg vs vehicle control and evaluated the BALF 24 h post exposure. The white cell counts and protein concentrations of the BALF of the test groups are depicted in FIG. 2.

[3] = Storage stability of PC-NSAID oil and reconstituted dispersions; format: physicochemical; settings: dispersed in sodium bicarbonate buffer, stored at 4° C., FIG. 8
Method: The proprietary method used to prepare the purified PC-NSAIDs takes advantage of the fact that pre-dissolving indomethacin (or ibuprofen) in acetone beforehand markedly increases the solubility of PC in this polar solvent (normally PC has a very limited solubility in acetone). Thereby the NSAID and purified soy PC (Lipoid S-100) (1:1 PC to NSAID molar ratio, which correspond to 2:1 PC to NSAID weight ratio) are dissolved in acetone, in this order and incubated at 40° C. until the solution clarifies. This solution is then placed in a rotor-evaporator for at least 12 hours to remove the volatile solvent. In the case of disaturated PC, such as dipalmitoyl-PC (DPPC) (which is the major phospholipid in pulmonary surfactant) we have learned that it is important to have 2-4 times more NSAID than PC (on a molar basis) to drive the solubility of the DPPC into the polar solvent. […] With the advice of the soy lecithin manufacturer (Lipoid Inc., Heidelberg, Germany) we are transitioning to their more purified soy lecithin product (Lipoid S-100) which already is approved for parenteral administration. […] FIGS. 10-13 indicate that these PC-NSAID formulations can readily be aerosolized into particles having a diameter between 2-6 μm for deep lung deposition.

[4] = ozone-exposed mice (2 ppm, 3 h), endotracheal dosing 1 h before and 90 min after, BALF 24 h post-exposure, *=p<0.05 vs air

In the case of `COc1ccc2c(c1)c(CC(=O)O)c(C)n2C(=O)c1ccc(Cl)cc1` [Indomethacin, indomethacin], the “white cell count in BALF, effect in words” value ([1]; O3-exposed mice, endotracheal, BALF 24 h post, FIG. 3 (indomethacin), FIG. 9A (ibuprofen, PC is DPPC)) is reported as “increased white cell count relative to vehicle”, the “protein concentration of BALF, effect in words” value ([1]; O3-exposed mice, endotracheal, BALF 24 h post, FIG. 4 (indomethacin), FIG. 9B (ibuprofen, PC is DPPC)) is reported as “did not cause a similar effect” and the “PGE2 concentration in BALF, effect in words” value ([1]; O3-exposed mice, endotracheal, FIG. 6 (indomethacin), FIG. 9D (ibuprofen, PC is DPPC)) is reported as “statistically significant effect to markedly inhibit”. For the same compound, the “BALF Cell Number” value [1, 4] was 163 ± 53*, the “BALF MPO” value [1, 4] was 2.12 ± 0.43* ng/mL and the “BALF PGE2” value [1, 4] was 274 ± 141 pg/mL. The “BALF Protein” value [1, 4] was 796 ± 135* μg/mL, the “white cell counts and protein concentrations of the BALF (index of O3-induced pulmonary inflammation)” value [2] was “appeared to inhibit” and the “stability in sodium bicarbonate buffer” value [3] was “degrades over time”.
